Test results: US10519169B2, “3-(1H-pyrrolo[2,3-C]pyridin-2-yl)-1 H-pyrazolo[4,3-B]pyridines and therapeutic uses thereof” (Samumed, LLC, priority 2015, dated 2019)
pEC50: −log10 of the molar value.

Assays:
IL-6 = IL-6 inhibition in LPS-stimulated THP-1 cells (HTRF); format: cell-based; conditions: Homo sapiens; for pEC50: LPS 500 ng/mL, 22 hours, IL6 HTRF; for inhibition at 10 µM: given for EC50 >10 μM, LPS, IL6, at 10 M [sic], read-out: percent inhibition at 10 M
Protocol: Human monocyte cell line (THP-1 cells; Catalog # TIB-202, ATCC, Manassas, Va.) were cultured in Roswell Park Memorial Institute (RPMI) 1640 Medium (Catalog #21870-100, Buffalo, N.Y.) with 1% L-glutamine, 1% HEPES, 1% Sodium Pyruvate, 2% Sodium Bicarbonate supplemented with 100 units/mL penicillin, 50 μg/mL streptomycin, 2-mercaptoethanol (0.05 mM) [basal medium] and 10% fetal bovine serum (Catalog #16140089, Life Technologies, Carlsbad, Calif.) at 37° C. and 5% CO2.
THP-1 cells were cultured in basal media with 1% FBS for 24 hours before the start of the assay. Each compound was dissolved in DMSO as a 10 mM stock and used to prepare compound source plates. Serial dilution (1:3, 10-point dose-response curves starting from 10 μM) and compound transfer was performed using the ECHO 550 (Labcyte, Sunnyvale, Calif.) into 384-well white low volume assay plates (Greiner Bio-One) with appropriate DMSO backfill for a final DMSO concentration of 0.1%. THP-1 cells were plated at 5000 cells/well in the 384-well plates and incubated at 37° C. for 2 h. 500 ng/mL of LPS was added after 2 hours and cells were incubated for another 22 hours at 37° C. Plates were spun in a centrifuge for 1 minute at […] and a mixture of anti-IL6 XL665, and anti-IL6 Cryptate diluted in reconstitution buffer (Cisbio Inc.) was added to each well. Following incubation for 3 hrs at room temperature, Homogeneous Time-Resolved Fluorescence (HTRF) was measured using the Envision (Perkin Elmer) at 665 nm and […]. The ratio of fluorescence at 665 nm to 620 nm was used as a readout for IL6 quantification. All samples were processed in duplicate. Readings were normalized to DMSO treated cells and normalized activities were utilized for EC50 calculations using the dose-response log (inhibitor) vs. response-variable slope (four parameters) nonlinear regression feature available in GraphPad Prism 5.0 (or Dotmatics). For EC50 of >10 μM, the percent inhibition at […] is provided.

[1] = test system: primary human fibroblasts derived from IPF patients (LL29 cells) treated with TGF-β1; assay: Inhibition of fibrotic process, αSMA staining in TGF-β1 treated LL29 fibroblasts; format: cell-based; conditions: Fibroblast; for pEC50: 96 h, TGF-β1 20 ng/mL, 4 days, % cells positive for αSMA; for inhibition at 10 µM: given for EC50 >10 μM, TGF-β1, αSMA, read-out: percent inhibition at 10 μM
Source text: Representative compounds were screened using primary human fibroblasts (derived from IPF patients) treated with TGF-β1 to determine their ability to inhibit the fibrotic process.
Primary human fibroblasts derived from IPF patients (LL29 cells) [^1Xiaoqiu Liu, et. al., “Fibrotic Lung Fibroblasts Show Blunted Inhibition by cAMP Due to Deficient cAMP Response Element-Binding Protein Phosphorylation”, Journal of Pharmacology and Experimental Therapeutics (2005), 315(2), 678-687; ^2Watts, K. L., et. al., “RhoA signaling modulates cyclin D1 expression in human lung fibroblasts; implications for idiopathic pulmonary fibrosis”, Respiratory Research (2006), 7(1), 88] were obtained from American Type Culture Collection (ATCC) and expanded in F12 medium supplemented with 15% Fetal Bovine Serum and Penicillin/Streptomycin.
Each compound was dissolved in DMSO as a 10 mM stock and used to prepare compound source plates. Serial dilution (1:2, 11-point dose-response curves from […] to […]) and compound transfer was performed using the ECHO 550 (Labcyte, Sunnyvale, Calif.) into 384-well clear bottom assay plates (Greiner Bio-One) with appropriate DMSO backfill for a final DMSO concentration of 0.1%. LL29 cells are plated at 1,500 cells/well in 80 μL/well F12 medium supplemented with 1% Fetal Bovine Serum. One hour after addition of the cells, TGF-β1 (Peprotech; 20 ng/mL) was added to the plates to induce fibrosis (ref. 1 and 2 above). Wells treated with TGF-β1 and containing DMSO were used as controls. Cells were incubated at 37° C. and 5% CO2 for 4 days. Following incubation for 4 days, SYTOX green nucleic acid stain (Life Technologies [Thermo Fisher Scientific]) was added to the wells at a final concentration of 1 μM and incubated at room temperature for 30 min. Cells were then fixed using 4% formaldehyde (Electron Microscopy Sciences), washed 3 times with PBS followed by blocking and permeabilization using 3% Bovine Serum Albumin (BSA; Sigma) and 0.3% Triton X-100 (Sigma) in PBS. Cells were then stained with antibody specific to α-smooth muscle actin (aSMA; Abcam) (ref. 1 and 2 above) in 3% Bovine Serum Albumin (BSA; Sigma) and 0.3% Triton X-100 (Sigma) in PBS, and incubated overnight at 4° C. Cells were then washed 3 times with PBS, followed by incubation with Alexa Flor-647 conjugated secondary antibody (Life Technologies [Thermo Fisher Scientific]) and DAPI at room temperature for 1 hour. Cells were then washed 3 times with PBS and plates were sealed for imaging. aSMA staining was imaged by excitation at 630 nm and emission at 665 nm and quantified using the Compartmental Analysis program on the CellInsight CX5 (Thermo Scientific). Dead or apoptotic cells were excluded from analysis based on positive SYTOX green staining. % of total cells positive for aSMA were counted in each well and normalized to the average of 11 wells treated with TGF-β1 on the same plate using Dotmatics' Studies Software. The normalized averages (fold change over untreated) of 3 replicate wells for each compound concentration were used to create dose-responses curves and EC50 values were calculated using non-linear regression curve fit in the Dotmatics' Studies Software. For EC50 of >10 μM, the percent inhibition at 10 μM is provided.

Row | Compound | pEC50 (IL-6) | pEC50 [1] | inhibition at 10 µM (IL-6) | inhibition at 10 µM [1]
1 | Fc1cccc(-c2cncc3[nH]c(-c4n[nH]c5ccc(-c6cccnc6)nc45)cc23)c1 [Compound 4, 3-(4-(3-Fluorophenyl)-1H-pyrrolo[2,3-c]pyridin-2-yl)-5-(pyridin-3-yl)-1H-pyrazolo[4,3-b]pyridine] | 6.58 | 6.57 |  | 
2 | CN(C)c1cncc(-c2ccc3[nH]nc(-c4cc5c(-c6cccc(F)c6)cncc5[nH]4)c3n2)c1 [Compound 7, 5-(3-(4-(3-Fluorophenyl)-1H-pyrrolo[2,3-c]pyridin-2-yl)-1H-pyrazolo[4,3-b]pyridin-5-yl)-N,N-dimethylpyridin-3-amine] | 7.42 | 6.35 |  | 
3 | Fc1cccc(-c2cncc3[nH]c(-c4n[nH]c5ccc(-c6cncc(CN7CCCCC7)c6)nc45)cc23)c1 [Compound 15, 3-(4-(3-Fluorophenyl)-1H-pyrrolo[2,3-c]pyridin-2-yl)-5-(5-(piperidin-1-ylmethyl)pyridin-3-yl)-1H-pyrazolo[4,3-b]pyridine] | < 5.00 | < 5.00 | 51.3% | 
4 | Cc1ccncc1-c1ccc2[nH]nc(-c3cc4c(-c5ccc(F)cc5)cncc4[nH]3)c2n1 [Compound 33, 3-(4-(4-Fluorophenyl)-1H-pyrrolo[2,3-c]pyridin-2-yl)-5-(4-methylpyridin-3-yl)-1H-pyrazolo[4,3-b]pyridine] | < 5.00 | 5.75 | 37.8% | 
5 | O=C(Nc1cncc(-c2ccc3[nH]nc(-c4cc5c(-c6ccc(F)cc6)cncc5[nH]4)c3n2)c1)c1ccccc1 [Compound 39, N-(5-(3-(4-(4-Fluorophenyl)-1H-pyrrolo[2,3-c]pyridin-2-yl)-1H-pyrazolo [4,3-b]pyridin-5-yl)pyridin-3-yl)benzamide] | < 5.00 | < 5.00 | 33.1% | 39.8%
6 | Fc1ccc(-c2cncc3[nH]c(-c4n[nH]c5ccc(-c6cncc(CN7CCC(F)(F)C7)c6)nc45)cc23)cc1 [Compound 54, 5-(5-((3,3-Difluoropyrrolidin-1-yl)methyl)pyridin-3-yl)-3-(4-(4-fluorophenyl)-1H-pyrrolo[2,3-c]pyridin-2-yl)-1H-pyrazolo[4,3-b]pyridine] | 6.75 | 6.43 |  | 
7 | CN(C)Cc1cncc(-c2ccc3[nH]nc(-c4cc5c(-c6ccccc6F)cncc5[nH]4)c3n2)c1 [Compound 69, 1-(5-(3-(4-(2-Fluorophenyl)-1H-pyrrolo[2,3-c]pyridin-2-yl)-1H-pyrazolo [4,3-b]pyridin-5-yl)pyridin-3-yl)-N,N-dimethylmethanamine] | 5.94 | 5.95 |  | 
8 | Cc1ccncc1-c1ccc2[nH]nc(-c3cc4c(-c5cccnc5)cncc4[nH]3)c2n1 [Compound 89, 5-(4-Methylpyridin-3-yl)-3-(4-(pyridin-3-yl)-1H-pyrrolo[2,3-c]pyridin-2-yl)-1H-pyrazolo[4,3-b]pyridine] | 6.37 | 5.81 |  | 
9 | FC1(F)CCN(Cc2cncc(-c3ccc4[nH]nc(-c5cc6c(-c7cccnc7)cncc6[nH]5)c4n3)c2)C1 [Compound 110, 5-(5-((3,3-Difluoropyrrolidin-1-yl)methyl)pyridin-3-yl)-3-(4-(pyridin-3-yl)-1H-pyrrolo[2,3-c]pyridin-2-yl)-1H-pyrazolo[4,3-b]pyridine] | 6.42 | 6.48 |  | 
10 | Nc1cncc(-c2ccc3[nH]nc(-c4cc5c(-c6ccncc6)cncc5[nH]4)c3n2)c1 [Compound 115, 5-(3-(4-(Pyridin-4-yl)-1H-pyrrolo[2,3-c]pyridin-2-yl)-1H-pyrazolo[4,3-b]pyridin-5-yl)pyridin-3-amine] | 5.99 | 5.18 |  | 
11 | c1cc(-c2cncc3[nH]c(-c4n[nH]c5ccc(-c6cncc(CN7CCCCC7)c6)nc45)cc23)ccn1 [Compound 127, 5-(5-(Piperidin-1-ylmethyl)pyridin-3-yl)-3-(4-(pyridin-4-yl)-1H-pyrrolo[2,3-c]pyridin-2-yl)-1H-pyrazolo[4,3-b]pyridine] | 5.54 | 5.30 |  | 
12 | O=C(Nc1cncc(-c2ccc3[nH]nc(-c4cc5ccncc5[nH]4)c3n2)c1)C1CCCC1 [Compound 274, N-(5-(3-(1H-Pyrrolo[2,3-c]pyridin-2-yl)-1H-pyrazolo[4,3-b]pyridin-5-yl)pyridin-3-yl)cyclopentanecarboxamide] | 6.63 | 6.18 |  | 
13 | c1ccc(-c2ccc3[nH]nc(-c4cc5ccncc5[nH]4)c3n2)nc1 [Compound 280, 5-(Pyridin-2-yl)-3-(1H-pyrrolo[2,3-c]pyridin-2-yl)-1H-pyrazolo[4,3-b]pyridine] | < 5.00 | 5.90 | 47.2% | 
14 | O=C(Cc1ccccc1)Nc1cncc(-c2ccc3[nH]nc(-c4cc5c(-c6ccoc6)cncc5[nH]4)c3n2)c1 [Compound 318, N-(5-(3-(4-(Furan-3-yl)-1H-pyrrolo[2,3-c]pyridin-2-yl)-1H-pyrazolo[4,3-b]pyridin-5-yl)pyridin-3-yl)-2-phenylacetamide] | < 5.00 | < 5.00 | 30.9% | 35.5%
15 | Cc1ccncc1-c1ccc2[nH]nc(-c3cc4c(-c5cc(F)cc(CNS(C)(=O)=O)c5)cncc4[nH]3)c2n1 [Compound 481, N-(3-Fluoro-5-(2-(5-(4-methylpyridin-3-yl)-1H-pyrazolo[4,3-b]pyridin-3-yl)-1H-pyrrolo[2,3-c]pyridin-4-yl)benzyl)methanesulfonamide] | 6.94 | 6.58 |  | 
16 | CS(=O)(=O)NCc1cc(F)cc(-c2cncc3[nH]c(-c4n[nH]c5ccc(-c6cncc(CN7CCCCC7)c6)nc45)cc23)c1 [Compound 491, N-(3-Fluoro-5-(2-(5-(5-(piperidin-1-ylmethyl)pyridin-3-yl)-1H-pyrazolo[4,3-b]pyridin-3-yl)-1H-pyrrolo[2,3-c]pyridin-4-yl)benzyl)methanesulfonamide] | 6.67 | 5.91 |  | 
17 | CS(=O)(=O)NCc1cc(F)cc(-c2cncc3[nH]c(-c4n[nH]c5ccc(-c6cncnc6)nc45)cc23)c1 [Compound 503, N-(3-Fluoro-5-(2-(5-(pyrimidin-5-yl)-1H-pyrazolo[4,3-b]pyridin-3-yl)-1H-pyrrolo[2,3-c]pyridin-4-yl)benzyl)methane sulfonamide] | 6.19 | 5.66 |  | 
